From US10092570B2 (Incyte Corporation, priority 2011, dated 2018)
Structures can show the parent of a compound that is named as a salt.

Molecular target: PI3Kδ (p110δ/p85α) (Homo sapiens (Human), UniProt O00329)
Experiment: Example A3: PI3Kδ scintillation proximity assay
Assay type: biochemical
Conditions: scintillation proximity assay, 20 μM ATP, 4 nM PI3Kδ; read-out: PI3Kδ SPA IC50
Outline: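 p110δ/p85α (4 nM) phosphorylated 20 μM PIP2 with 20 μM ATP plus [γ-33P]ATP in MOPS pH 6.7, MgCl2, DTT, CHAPS, 0.5% DMSO, at RT. Stopped with EDTA/excess ATP, product captured on WGA SPA beads overnight and counted; IC50 from percent control activity versus log inhibitor.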

Chain of PI3Kδ (p110δ/p85α) (O00329 whole entry): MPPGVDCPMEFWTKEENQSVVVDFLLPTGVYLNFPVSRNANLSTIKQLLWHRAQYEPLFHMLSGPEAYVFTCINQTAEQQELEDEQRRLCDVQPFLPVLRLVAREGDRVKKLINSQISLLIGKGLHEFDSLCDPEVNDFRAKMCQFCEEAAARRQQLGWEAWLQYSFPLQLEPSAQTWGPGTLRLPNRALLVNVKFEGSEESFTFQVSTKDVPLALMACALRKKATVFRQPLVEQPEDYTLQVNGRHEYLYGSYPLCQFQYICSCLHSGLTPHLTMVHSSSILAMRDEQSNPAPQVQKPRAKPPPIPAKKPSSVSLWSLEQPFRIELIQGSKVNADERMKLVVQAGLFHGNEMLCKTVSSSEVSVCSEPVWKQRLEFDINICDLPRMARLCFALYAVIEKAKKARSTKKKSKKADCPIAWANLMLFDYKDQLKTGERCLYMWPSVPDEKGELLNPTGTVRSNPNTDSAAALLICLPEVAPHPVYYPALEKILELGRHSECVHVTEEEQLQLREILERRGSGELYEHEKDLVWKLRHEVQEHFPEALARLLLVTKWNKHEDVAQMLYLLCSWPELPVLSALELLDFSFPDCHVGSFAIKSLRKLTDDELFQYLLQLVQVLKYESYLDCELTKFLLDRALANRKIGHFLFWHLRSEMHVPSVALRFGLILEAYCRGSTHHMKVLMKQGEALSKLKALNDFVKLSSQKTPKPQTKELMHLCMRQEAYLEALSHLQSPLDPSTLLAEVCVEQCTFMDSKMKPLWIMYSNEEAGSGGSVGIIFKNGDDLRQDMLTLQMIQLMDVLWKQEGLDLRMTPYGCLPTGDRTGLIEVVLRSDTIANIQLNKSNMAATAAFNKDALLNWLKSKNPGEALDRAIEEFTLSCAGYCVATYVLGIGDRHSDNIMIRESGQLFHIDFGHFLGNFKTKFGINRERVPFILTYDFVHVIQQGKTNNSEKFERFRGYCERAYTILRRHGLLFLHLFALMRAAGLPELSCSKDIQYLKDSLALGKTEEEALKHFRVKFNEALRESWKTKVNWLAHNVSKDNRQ
Chain of PI3Kδ (p110δ/p85α) (P27986 whole entry partner): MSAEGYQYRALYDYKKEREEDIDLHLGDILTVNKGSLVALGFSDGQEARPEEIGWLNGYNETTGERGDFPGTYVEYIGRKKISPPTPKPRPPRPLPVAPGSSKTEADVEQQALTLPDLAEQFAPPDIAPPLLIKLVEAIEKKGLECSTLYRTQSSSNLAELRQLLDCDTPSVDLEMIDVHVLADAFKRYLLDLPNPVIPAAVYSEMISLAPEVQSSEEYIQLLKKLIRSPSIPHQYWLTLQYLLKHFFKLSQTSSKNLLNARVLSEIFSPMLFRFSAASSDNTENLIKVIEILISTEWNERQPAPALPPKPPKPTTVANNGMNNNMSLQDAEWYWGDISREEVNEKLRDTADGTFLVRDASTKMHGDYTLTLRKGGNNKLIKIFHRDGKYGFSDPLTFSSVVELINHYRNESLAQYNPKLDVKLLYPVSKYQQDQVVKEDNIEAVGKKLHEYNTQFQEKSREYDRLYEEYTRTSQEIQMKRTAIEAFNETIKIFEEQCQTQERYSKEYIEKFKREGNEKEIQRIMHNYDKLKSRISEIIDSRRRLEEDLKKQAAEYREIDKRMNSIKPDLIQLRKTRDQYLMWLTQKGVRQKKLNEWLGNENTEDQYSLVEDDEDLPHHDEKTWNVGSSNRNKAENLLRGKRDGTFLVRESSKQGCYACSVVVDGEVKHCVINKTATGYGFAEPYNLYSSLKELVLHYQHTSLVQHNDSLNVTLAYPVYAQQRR

Row | IC50 | Compound
1 | < 10 nM | COCCN1CC(c2c(C)c(Cl)cc(C(C)n3nc(C)c4c(N)ncnc43)c2OC)C1 (racemic) [Example 9, 1-(1-{5-Chloro-2-methoxy-3-[1-(2-methoxyethyl)azetidin-3-yl]-4-methylphenyl}ethyl)-3-methyl-1H-pyrazolo[3,4-d]pyrimidin-4-amine]
2 | < 10 nM | COc1c(C(C)n2nc(C)c3c(N)ncnc32)cc(Cl)c(C#N)c1C1CN(C(C)=O)C1 (single isomer, unassigned) [Example 281, 2-(1-Acetylazetidin-3-yl)-4-[1-(4-amino-3-methyl-1H-pyrazolo[3,4-d]pyrimidin-1-yl)ethyl]-6-chloro-3-methoxybenzonitrile]
3 | < 10 nM | CCOc1c(C(C)n2nc(C)c3c(N)ncnc32)cc(Cl)c(C#N)c1C1CN(C2CCOC2)C1 (single isomer, unassigned) [Example 228, 4-[1-(4-Amino-3-methyl-1H-pyrazolo[3,4-d]pyrimidin-1-yl)ethyl]-6-chloro-3-ethoxy-2-[1-(tetrahydrofuran-3-yl)azetidin-3-yl]benzonitrile]
4 | < 10 nM | CCOc1c(C(C)n2nc(C)c3c(N)ncnc32)cc(Cl)c(C)c1C1CN(C(=O)[C@@H](C)O)C1 (stereo partly drawn) [Example 100, (2R)-1-(3-{3-[1-(4-Amino-3-methyl-1H-pyrazolo[3,4-d]pyrimidin-1-yl)ethyl]-5-chloro-2-ethoxy-6-methylphenyl}azetidin-1-yl)-1-oxopropan-2-ol]
5 | < 10 nM | CCOc1c(C(C)n2nc(C)c3c(N)ncnc32)cc(Cl)c(C)c1-c1cnn(C)c1 (single isomer, unassigned) [Example 197, 1-(1-(5-chloro-2-ethoxy-4-methyl-3-(1-methyl-1H-pyrazol-4-yl)phenyl)ethyl)-3-methyl-1H-pyrazolo[3,4-d]pyrimidin-4-amine]
6 | < 10 nM | COc1c(C(C)n2nc(C)c3c(N)ncnc32)cc(Cl)c(C)c1-c1ccc(C(=O)NCCO)nc1 (stereo not shown) [Example 23, 5-(3-(1-(4-amino-3-methyl-1H-pyrazolo[3,4-d]pyrimidin-1-yl)ethyl)-5-chloro-2-methoxy-6-methylphenyl)-N-(2-hydroxyethyl)picolinamide trifluoroacetate]
7 | < 10 nM | CCOc1c(C(C)n2nc(CC#N)c3c(N)ncnc32)cc(Cl)c(C)c1-c1ccc(C(=O)N(C)C)nc1 (racemic) [Example 165, 5-(3-{1-[4-Amino-3-(cyanomethyl)-1H-pyrazolo[3,4-d]pyrimidin-1-yl]ethyl}-5-chloro-2-ethoxy-6-methylphenyl)-N,N-dimethylpyridine-2-carboxamide]
8 | < 10 nM | COc1c(C(C)n2nc(C(F)F)c3c(N)ncnc32)cc(C#N)c(C)c1C1CN(C[C@H](C)O)C1 (stereo partly drawn) [Example 131, 5-{1-[4-Amino-3-(difluoromethyl)-1H-pyrazolo[3,4-d]pyrimidin-1-yl]ethyl}-3-{1-[(2S)-2-hydroxypropyl]azetidin-3-yl}-4-methoxy-2-methylbenzonitrile]
9 | < 10 nM | CCOc1c(C(C)n2nc(C)c3c(N)ncnc32)cc(Cl)c(C#N)c1C1CN(C(C)(C)C(=O)OC(C)(C)C)C1 (stereo not shown) [Example 236, tert-Butyl 2-(3-{3-[1-(4-amino-3-methyl-1H-pyrazolo[3,4-d]pyrimidin-1-yl)ethyl]-5-chloro-6-cyano-2-ethoxyphenyl}azetidin-1-yl)-2-methylpropanoate]
10 | < 10 nM | COc1c(C(C)n2nc(C)c3c(N)ncnc32)cc(Cl)c(C)c1C1CN(C(C)=O)C1 (stereo not shown) [Example 2, 1-{1-[3-(1-Acetylazetidin-3-yl)-5-chloro-2-methoxy-4-methylphenyl]ethyl}-3-methyl-1H-pyrazolo[3,4-d]pyrimidin-4-amine trifluoroacetate]
11 | < 10 nM | CCNC(=O)c1c(C)c(Cl)cc(C(C)n2nc(-c3ccc4cn[nH]c4c3)c3c(N)ncnc32)c1OCC (racemic) [Example 92, 3-{1-[4-Amino-3-(1H-indazol-6-yl)-1H-pyrazolo[3,4-d]pyrimidin-1-yl]ethyl}-5-chloro-2-ethoxy-N-ethyl-6-methylbenzamide]
12 | < 10 nM | CCNC(=O)c1c(C)c(Cl)cc(C(C)n2nc(C)c3c(N)ncnc32)c1-c1cc(F)cc(F)c1 (racemic) [Example 37, 6-[1-(4-amino-3-methyl-1H-pyrazolo[3,4-d]pyrimidin-1-yl)ethyl]-4-chloro-N-ethyl-3′,5′-difluoro-3-methylbiphenyl-2-carboxamide]
13 | < 10 nM | COc1c(C(C)n2nc(C(F)F)c3c(N)ncnc32)cc(C#N)c(C)c1C1CN(CCO)C1 (racemic) [Example 130, 5-{1-[4-Amino-3-(difluoromethyl)-1H-pyrazolo[3,4-d]pyrimidin-1-yl]ethyl}-3-[1-(2-hydroxyethyl)azetidin-3-yl]-4-methoxy-2-methylbenzonitrile]
14 | < 10 nM | COc1c(C(C)n2nc(C)c3c(N)ncnc32)cc(Cl)c(C)c1C1CN(C2CCOC2)C1 (stereo not shown) [Example 107, 1-(1-{5-Chloro-2-methoxy-4-methyl-3-[1-(tetrahydrofuran-3-yl)azetidin-3-yl]phenyl}ethyl)-3-methyl-1H-pyrazolo[3,4-d]pyrimidin-4-amine]
15 | < 10 nM | CCOc1c(C(C)n2nc(C)c3c(N)ncnc32)cc(Cl)c(C#N)c1C1CN(CC#N)C1 (single isomer, unassigned) [Example 235, 4-[1-(4-Amino-3-methyl-1H-pyrazolo[3,4-d]pyrimidin-1-yl)ethyl]-6-chloro-2-[1-(cyanomethyl)azetidin-3-yl]-3-ethoxybenzonitrile]
16 | < 10 nM | COc1c(C(C)n2nc(C)c3c(N)ncnc32)cc(Cl)c(C)c1C1CCN(CC(C)(C)O)CC1 (racemic) [Example 164, 1-(4-{3-[1-(4-Amino-3-methyl-1H-pyrazolo[3,4-d]pyrimidin-1-yl)ethyl]-5-chloro-2-methoxy-6-methylphenyl}piperidin-1-yl)-2-methylpropan-2-ol]
17 | < 10 nM | COc1c(C(C)n2nc(C)c3c(N)ncnc32)cc(Cl)c(Cl)c1C1CN(C[C@H](C)O)C1 (stereo partly drawn) [Example 301, (2S)-1-(3-{3-[1-(4-Amino-3-methyl-1H-pyrazolo[3,4-d]pyrimidin-1-yl)ethyl]-5,6-dichloro-2-methoxyphenyl}azetidin-1-yl)propan-2-ol]
18 | < 10 nM | COc1c(C(C)n2ccc(=O)c3c(N)ncnc32)cc(Cl)c(C)c1C1CN(C(C)C)C1 (racemic) [Example 34, 4-Amino-8-{1-[5-chloro-3-(1-isopropylazetidin-3-yl)-2-methoxy-4-methylphenyl]ethyl}pyrido[2,3-d]pyrimidin-5(8H)-one]
19 | < 10 nM | CCNC(=O)c1c(C)c(Cl)cc(C(C)n2nc(-c3ccc4[nH]ccc4c3)c3c(N)ncnc32)c1OCC (racemic) [Example 93, 3-{1-[4-Amino-3-(1H-indol-5-yl)-1H-pyrazolo[3,4-d]pyrimidin-1-yl]ethyl}-5-chloro-2-ethoxy-N-ethyl-6-methylbenzamide]
20 | < 10 nM | COc1c(C(C)n2nc(C)c3c(N)ncnc32)cc(Cl)c(C)c1C1CN(C2CCOCC2)C1 (racemic) [Example 64, 1-(1-{5-chloro-2-methoxy-4-methyl-3-[1-(tetrahydro-2H-pyran-4-yl)azetidin-3-yl]phenyl}ethyl)-3-methyl-1H-pyrazolo[3,4-d]pyrimidin-4-amine]
21 | < 10 nM | COc1c(C(C)n2nc(-c3cn[nH]c3)c3c(N)ncnc32)cc(Cl)c(C)c1C1CN(CC#N)C1 (stereo not shown) [Example 126, [3-(3-{1-[4-Amino-3-(1H-pyrazol-4-yl)-1H-pyrazolo[3,4-d]pyrimidin-1-yl]ethyl}-5-chloro-2-methoxy-6-methylphenyl)azetidin-1-yl]acetonitrile]
22 | < 10 nM | COc1c(C(C)n2nc(C)c3c(N)ncnc32)cc(Cl)c(C#N)c1C1CN(C2CCOCC2)C1 (single isomer, unassigned) [Example 277, 4-[1-(4-Amino-3-methyl-1H-pyrazolo[3,4-d]pyrimidin-1-yl)ethyl]-6-chloro-3-methoxy-2-[1-(tetrahydro-2H-pyran-4-yl)azetidin-3-yl]benzonitrile]
23 | < 10 nM | CCNC(=O)c1c(C)c(Cl)cc(C(C)n2nc(-c3ccc4nc(N)sc4c3)c3c(N)ncnc32)c1OCC (racemic) [Example 90, 3-{1-[4-Amino-3-(2-amino-1,3-benzothiazol-6-yl)-1H-pyrazolo[3,4-d]pyrimidin-1-yl]ethyl}-5-chloro-2-ethoxy-N-ethyl-6-methylbenzamide]
24 | < 10 nM | CCNC(=O)c1c(C)c(Cl)cc(C(C)n2nc(-c3cc(O)cc(F)c3)c3c(N)ncnc32)c1OCC (racemic) [Example 88, 3-{1-[4-Amino-3-(3-fluoro-5-hydroxyphenyl)-1H-pyrazolo[3,4-d]pyrimidin-1-yl]ethyl}-5-chloro-2-ethoxy-N-ethyl-6-methylbenzamide]
25 | < 10 nM | COc1c(C(C)n2nc(C)c3c(N)ncnc32)cc(Cl)c(C)c1-c1cnn(CCN(C)C)c1 (single isomer, unassigned) [Example 183, 1-[1-(5-Chloro-3-{1-[2-(dimethylamino)ethyl]-1H-pyrazol-4-yl}-2-methoxy-4-methylphenyl)ethyl]-3-methyl-1H-pyrazolo[3,4-d]pyrimidin-4-amine]

Row | Compound | IC50
26 | 4-[1-(4-Amino-3-methyl-1H-pyrazolo[3,4-d]pyrimidin-1-yl)ethyl]-6-chloro-2-[1-(2-hydroxyethyl)azetidin-3-yl]-3-methoxybenzonitrile-d4 [Example 297] | < 10 nM
27 | CCOc1c(C(C)n2nc(C)c3c(N)ncnc32)cc(Cl)c(F)c1C1CN(CC(F)F)C1 (racemic) [Example 147, 1-(1-{5-Chloro-3-[1-(2,2-difluoroethyl)azetidin-3-yl]-2-ethoxy-4-fluorophenyl}ethyl)-3-methyl-1H-pyrazolo[3,4-d]pyrimidin-4-amine] | < 10 nM
28 | COc1c(C(C)n2ccc3c(N)ncnc32)cc(Cl)c(C)c1-c1ccc(C(=O)N(C)C)nc1 (stereo not shown) [Example 12, 5-{3-[1-(4-Amino-7H-pyrrolo[2,3-d]pyrimidin-7-yl)ethyl]-5-chloro-2-methoxy-6-methylphenyl}-N,N-dimethylpyridine-2-carboxamide trifluoroacetate] | 200 to 500 nM
